Source: the NIST ThermoML archive (doi:10.1016/j.jct.2016.03.026)

Assay: xn = mol fraction of the nth substance listed
Conditions: 293.15 K, Fluid (supercritical or subcritical phases), Vibrating tube method, x1 = 0.97

O=C=O [carbon dioxide] + CO
Conditions	mass density [kg/m3]
14700 kPa	904.75
14725 kPa	904.95
14750 kPa	905.15
14775 kPa	905.36
14800 kPa	905.48
14825 kPa	905.68
14850 kPa	905.88
14875 kPa	906.06
14900 kPa	906.27
14925 kPa	906.44
14950 kPa	906.59
14975 kPa	906.77
15000 kPa	906.96
15025 kPa	907.15
15050 kPa	907.32
15075 kPa	907.46
15100 kPa	907.6
15125 kPa	907.83
15150 kPa	907.99
15175 kPa	908.18
15200 kPa	908.32
15225 kPa	908.49
15250 kPa	908.66
15275 kPa	908.85
15300 kPa	909.03
15325 kPa	909.22
15350 kPa	909.37
15375 kPa	909.52
15400 kPa	909.68
15425 kPa	909.89
15450 kPa	910.03
15475 kPa	910.14
15500 kPa	910.23
15525 kPa	910.31
15550 kPa	910.48
15575 kPa	910.7
15600 kPa	910.88
15625 kPa	911.01
15650 kPa	911.21
15675 kPa	911.37
15700 kPa	911.59
15725 kPa	911.74
15750 kPa	911.86
15775 kPa	912.03
15800 kPa	912.19
15825 kPa	912.36
15850 kPa	912.52
15875 kPa	912.75
15900 kPa	912.9
15925 kPa	913.04
15950 kPa	913.17
15975 kPa	913.37
16000 kPa	913.55
16025 kPa	913.66
16050 kPa	913.83
16075 kPa	913.99
16100 kPa	914.15
16125 kPa	914.31
16150 kPa	914.45
16175 kPa	914.56
16200 kPa	914.73
16225 kPa	914.89
16250 kPa	915.05
16275 kPa	915.22
16300 kPa	915.38
16325 kPa	915.54
16350 kPa	915.71
16375 kPa	915.87
16400 kPa	916.03
16425 kPa	916.2
16450 kPa	916.37
16475 kPa	916.52
16500 kPa	916.75
16525 kPa	916.93
16550 kPa	917.01
16575 kPa	917.25
16600 kPa	917.37
16625 kPa	917.58
16650 kPa	917.7
16675 kPa	917.9
16700 kPa	918.08
16725 kPa	918.24
16750 kPa	918.41
16775 kPa	918.57
16800 kPa	918.73
16825 kPa	918.9
16850 kPa	919.06
16875 kPa	919.22
16900 kPa	919.43
16925 kPa	919.55
16950 kPa	919.71
16975 kPa	919.95
17000 kPa	920.08
17025 kPa	920.29
17050 kPa	920.44
17075 kPa	920.59
17100 kPa	920.73
17125 kPa	920.92
17150 kPa	921.1
17175 kPa	921.27
17200 kPa	921.4
17225 kPa	921.53
17250 kPa	921.7
17275 kPa	921.85
17300 kPa	922.01
17325 kPa	922.18
17350 kPa	922.33
17375 kPa	922.5
17400 kPa	922.71
17425 kPa	922.85
17450 kPa	922.99
17475 kPa	923.17
17500 kPa	923.34
17525 kPa	923.48
17550 kPa	923.64
17575 kPa	923.77
17600 kPa	923.94
17625 kPa	924.11
17650 kPa	924.26
17675 kPa	924.4
17700 kPa	924.55
